This passage reports TD50 and carcinogen call results from PubChem BioAssay AID1745844 (Carcinogenic Potency Database (CPDB), 2022).

For the data set, the system named is rodent lifetime carcinogenesis bioassay, tumor incidence TD50. Briefly: carcinogenic potency in animals, long-term in vivo studies, CPDB compilation (AID 1745844).

Values joined by “and” are separate entries in the source; they are usually repeats but may differ in a detail not shown here. Identical values can stand only once. Active and inactive are the calls of the source. The rule behind the calls is not given here.

`S=P(N1CC1)(N1CC1)N1CC1`: the TD50 is 0.216 mg/kg/day and 0.21 mg/kg/day (mouse, strain B6C3F1, females, i.p., site: all sites, lesion: lymphocytic leukemia + lymphoma, dosed 47 weeks, study length 86 weeks); 0.0855 mg/kg/day (mouse, strain B6C3F1, females, i.p., site: any site (literature study), lesion: several types, types named in the paper, dosed 47 weeks, study length 86 weeks); 1.12 mg/kg/day (mouse, strain B6C3F1, females, i.p., site: liver, lesion: hepatocellular adenoma + hepatocellular carcinoma + neoplastic nodule, dosed 47 weeks, study length 86 weeks); 0.408 mg/kg/day (mouse, strain B6C3F1, females, i.p., site: lung, lesion: alveolar/bronchiolar adenoma + alveolar/bronchiolar carcinoma, dosed 47 weeks, study length 86 weeks); 0.408 mg/kg/day (mouse, strain B6C3F1, females, i.p., site: lung, lesion: alveolar/bronchiolar adenoma, dosed 47 weeks, study length 86 weeks); 0.241 mg/kg/day (mouse, strain B6C3F1, males, i.p., site: all sites, lesion: leukemia + lymphocytic leukemia + lymphoma, dosed 52 weeks, study length 83 weeks). In addition, the TD50 is 0.241 mg/kg/day and 0.238 mg/kg/day (mouse, strain B6C3F1, males, i.p., site: all sites, lesion: leukemia + lymphoma, dosed 52 weeks, study length 83 weeks); 0.265 mg/kg/day and 0.262 mg/kg/day (mouse, strain B6C3F1, males, i.p., site: all sites, lesion: lymphocytic leukemia + lymphoma, dosed 52 weeks, study length 83 weeks); 0.102 mg/kg/day (mouse, strain B6C3F1, males, i.p., site: all sites, lesion: squamous-cell carcinoma, dosed 52 weeks, study length 83 weeks); 0.069 mg/kg/day (mouse, strain B6C3F1, males, i.p., site: any site (literature study), lesion: several types, types named in the paper, dosed 52 weeks, study length 83 weeks); 1.12 mg/kg/day (mouse, strain B6C3F1, males, i.p., site: liver, lesion: hepatocellular adenoma + hepatocellular carcinoma + neoplastic nodule, dosed 52 weeks, study length 83 weeks); 0.584 mg/kg/day (mouse, strain B6C3F1, males, i.p., site: lung, lesion: alveolar/bronchiolar adenoma + alveolar/bronchiolar carcinoma, dosed 52 weeks, study length 83 weeks). The TD50 (mouse, strain B6C3F1, males, i.p., site: preputial gland, lesion: squamous-cell carcinoma, dosed 52 weeks, study length 83 weeks) was 0.3 mg/kg/day; the TD50 (mouse, strain B6C3F1, males, i.p., site: skin, lesion: squamous-cell carcinoma, dosed 52 weeks, study length 83 weeks) is 0.28 mg/kg/day; the TD50 (rat, strain BR 46, males, i.v., site: any site (literature study), lesion: benign tumor, dosed 52 weeks, study length 104 weeks) was 0.646 mg/kg/day; the TD50 (rat, strain BR 46, males, i.v., site: any site (literature study), lesion: malignant tumor, dosed 52 weeks, study length 104 weeks) was determined as 0.303 mg/kg/day; the TD50 (rat, strain BR 46, males, i.v., site: any site (literature study), lesion: several types, types named in the paper, dosed 52 weeks, study length 104 weeks) was 0.186 mg/kg/day; the TD50 (rat, strain Sprague-Dawley, females, i.p., site: any site (literature study), lesion: several types, types named in the paper, dosed 36 weeks, study length 81 weeks) is 0.0404 mg/kg/day. The TD50 (rat, strain Sprague-Dawley, females, i.p., site: brain + nasal cavity, lesion: olfactory neuroblastoma + carcinoma, NOS, dosed 36 weeks, study length 81 weeks) was 0.819 mg/kg/day; the TD50 (rat, strain Sprague-Dawley, females, i.p., site: ear canal + skin, lesion: squamous-cell carcinoma, dosed 36 weeks, study length 79 weeks) was 0.214 mg/kg/day; the TD50 (rat, strain Sprague-Dawley, females, i.p., site: ear canal + skin, lesion: squamous-cell carcinoma, dosed 36 weeks, study length 81 weeks) is 0.217 mg/kg/day; the TD50 (rat, strain Sprague-Dawley, females, i.p., site: ear canal, lesion: squamous-cell carcinoma, dosed 36 weeks, study length 79 weeks) was 0.327 mg/kg/day; the TD50 (rat, strain Sprague-Dawley, females, i.p., site: mammary gland, lesion: adenocarcinoma, NOS, dosed 36 weeks, study length 79 weeks) was 0.182 mg/kg/day; the TD50 (rat, strain Sprague-Dawley, females, i.p., site: uterus, lesion: adenocarcinoma, NOS, dosed 36 weeks, study length 79 weeks) worked out at 0.236 mg/kg/day. In addition, the TD50 reads like this: (rat, strain Sprague-Dawley, females, i.p., site: uterus, lesion: adenocarcinoma, NOS, dosed 36 weeks, study length 81 weeks) 0.243 mg/kg/day; (rat, strain Sprague-Dawley, males, i.p., site: all sites, lesion: leukemia + lymphoma, dosed 32 weeks, study length 79 weeks) 0.224 mg/kg/day; (rat, strain Sprague-Dawley, males, i.p., site: all sites, lesion: leukemia, dosed 32 weeks, study length 79 weeks) 0.29 mg/kg/day; (rat, strain Sprague-Dawley, males, i.p., site: all sites, lesion: leukemia, dosed 32 weeks, study length 82 weeks) 0.312 mg/kg/day; (rat, strain Sprague-Dawley, males, i.p., site: all sites, lesion: lymphocytic leukemia, dosed 32 weeks, study length 79 weeks) 0.374 mg/kg/day; (rat, strain Sprague-Dawley, males, i.p., site: any site (literature study), lesion: several types, types named in the paper, dosed 32 weeks, study length 82 weeks) 0.0332 mg/kg/day. Also, the TD50 (rat, strain Sprague-Dawley, males, i.p., site: brain + nasal cavity, lesion: neuroblastoma + olfactory neuroblastoma + carcinoma, NOS, dosed 32 weeks, study length 82 weeks) is 0.285 mg/kg/day; the TD50 (rat, strain Sprague-Dawley, males, i.p., site: ear canal + skin, lesion: squamous-cell carcinoma, dosed 32 weeks, study length 79 weeks) was 0.122 mg/kg/day; the TD50 (rat, strain Sprague-Dawley, males, i.p., site: skin, lesion: squamous-cell carcinoma, dosed 32 weeks, study length 79 weeks) is 0.155 mg/kg/day; the TD50 (rat, strain Sprague-Dawley, males, i.p., site: subcutaneous tissue, lesion: sarcoma, NOS, dosed 32 weeks, study length 79 weeks) was 0.22 mg/kg/day.

Regarding `NC(=S)C(N)=S`, the TD50 (rat, strain Charles River CD (Sprague-Dawley), females, in feed, site: mammary gland, lesion: one or several types, types not named, dosed 78 weeks, study length 104 weeks) is 12.6 mg/kg/day.

Take `OC[C@@H](O)[C@H]1O[C@@H]2O[C@H](C(Cl)(Cl)Cl)O[C@@H]2[C@H]1O`: the TD50 (mouse, strain B6AKF1, females, oral dosing, site: any site (literature study), lesion: several types, types named in the paper, dosed 76 weeks, study length 76 weeks) was 17.3 mg/kg/day (inactive); the TD50 (mouse, strain B6AKF1, females, oral dosing, site: lung, lesion: adenoma, dosed 76 weeks, study length 76 weeks) was 19.5 mg/kg/day (inactive); the TD50 (mouse, strain B6C3F1, males, oral dosing, site: any site (literature study), lesion: several types, types named in the paper, dosed 76 weeks, study length 76 weeks) is 4.07 mg/kg/day (inactive); the TD50 (mouse, strain B6C3F1, males, oral dosing, site: liver, lesion: hepatoma, dosed 76 weeks, study length 76 weeks) was 7.27 mg/kg/day (inactive); the TD50 (mouse, strain B6C3F1, males, oral dosing, site: lung, lesion: adenoma, dosed 76 weeks, study length 76 weeks) was 11.2 mg/kg/day (inactive). Besides, the carcinogen call reads like this: (mouse, strain B6AKF1, females, oral dosing, site: liver, lesion: hepatoma, dosed 76 weeks, study length 76 weeks) “negative (inactive)”; (mouse, strain B6AKF1, males, oral dosing, site: any site (literature study), lesion: several types, types named in the paper, dosed 76 weeks, study length 76 weeks) “negative (inactive)”; (mouse, strain B6AKF1, males, oral dosing, site: liver, lesion: hepatoma, dosed 76 weeks, study length 76 weeks) “negative (inactive)”; (mouse, strain B6AKF1, males, oral dosing, site: lung, lesion: adenoma, dosed 76 weeks, study length 76 weeks) “negative (inactive)”; (mouse, strain B6C3F1, females, oral dosing, site: any site (literature study), lesion: one or several types, types not named, dosed 76 weeks, study length 76 weeks) “negative (inactive)”; (mouse, strain B6C3F1, females, oral dosing, site: liver, lesion: hepatoma, dosed 76 weeks, study length 76 weeks) “negative (inactive)”. Further, the carcinogen call (mouse, strain B6C3F1, females, oral dosing, site: lung, lesion: several types, types named in the paper, dosed 76 weeks, study length 76 weeks) is “negative (inactive)”.

Consider `CC1CN(N=O)C(=O)NC1=O` (stereo unspecified), for which the carcinogen call was “negative (inactive)” (rat, strain MRC-Wistar, females, in drinking water, site: any site (literature study), lesion: several types, types named in the paper, dosed 52 weeks, study length 127 weeks); “negative (inactive)” (rat, strain MRC-Wistar, males, in drinking water, site: any site (literature study), lesion: several types, types named in the paper, dosed 52 weeks, study length 127 weeks); “negative (inactive)” (rat, strain MRC-Wistar, males, in drinking water, site: liver, lesion: one or several types, types not named, dosed 52 weeks, study length 127 weeks). Also, the TD50 (rat, strain MRC-Wistar, females, in drinking water, site: liver, lesion: several types, types named in the paper, dosed 52 weeks, study length 127 weeks) is 31.2 mg/kg/day.

As a reminder, the TD50 is the dose at which the toxic effect under study appears in half of the subjects.
